Assay results taken from publication PMC10140010 (Investigational New Drugs, 2023).
Where “and” joins values, the source holds several entries; their conditions need not be identical. Equal entries are not always repeated. Where two headings read alike, the source gives them in different places.

Assays:
[1] = target: T1, MATE1 (Homo sapiens, UniProt Q96FL8)
T1 sequence (Q96FL8 1-570): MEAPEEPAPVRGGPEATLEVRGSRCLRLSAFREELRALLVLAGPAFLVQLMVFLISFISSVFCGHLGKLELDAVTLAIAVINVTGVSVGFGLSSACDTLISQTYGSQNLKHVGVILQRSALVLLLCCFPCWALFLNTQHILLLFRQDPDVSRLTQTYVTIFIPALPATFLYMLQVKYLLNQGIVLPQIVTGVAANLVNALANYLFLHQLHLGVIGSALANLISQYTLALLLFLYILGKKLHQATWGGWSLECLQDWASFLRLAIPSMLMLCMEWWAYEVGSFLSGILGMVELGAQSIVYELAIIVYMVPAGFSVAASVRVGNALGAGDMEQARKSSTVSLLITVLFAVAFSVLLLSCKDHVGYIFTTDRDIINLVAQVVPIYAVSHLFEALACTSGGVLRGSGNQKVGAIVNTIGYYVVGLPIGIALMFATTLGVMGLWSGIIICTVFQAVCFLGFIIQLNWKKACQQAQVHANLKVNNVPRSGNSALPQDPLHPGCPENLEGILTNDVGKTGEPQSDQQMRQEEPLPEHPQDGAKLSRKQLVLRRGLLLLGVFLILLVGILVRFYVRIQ
Protocol: Using a stably transfected cell line of HEK293 expressing transporter OATP1B1, OATP1B3 or OCT2, formal substrate investigation tests were performed for three concentration gradients (30 µM, 3 µM, 0.3 µM) of iruplinalkib.

[2] = target: T2, OCT2 (Homo sapiens, UniProt O15244); experiment: Uptake inhibitor investigation in HEK293 cells expressing transporter; type: in vitro ADME; conditions: metformin as the substrate
T2 construct: No ESH9G27; host or cells: HEK293
T2 sequence (O15244 1-555): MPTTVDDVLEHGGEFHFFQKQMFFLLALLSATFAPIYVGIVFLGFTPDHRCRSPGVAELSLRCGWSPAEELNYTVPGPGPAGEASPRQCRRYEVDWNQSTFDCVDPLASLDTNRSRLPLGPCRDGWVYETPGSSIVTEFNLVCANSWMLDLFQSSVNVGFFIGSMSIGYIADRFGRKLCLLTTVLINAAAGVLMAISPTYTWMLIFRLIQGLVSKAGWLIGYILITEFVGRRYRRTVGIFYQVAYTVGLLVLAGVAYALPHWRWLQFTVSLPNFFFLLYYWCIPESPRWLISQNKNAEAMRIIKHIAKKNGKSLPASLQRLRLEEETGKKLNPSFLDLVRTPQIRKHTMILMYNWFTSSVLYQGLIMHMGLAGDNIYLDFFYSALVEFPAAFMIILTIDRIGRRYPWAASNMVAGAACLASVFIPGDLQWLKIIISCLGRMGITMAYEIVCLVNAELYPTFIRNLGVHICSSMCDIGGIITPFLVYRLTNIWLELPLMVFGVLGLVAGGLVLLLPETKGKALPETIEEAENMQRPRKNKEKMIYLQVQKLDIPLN

[3] = target: T3, OATP1B3 (Homo sapiens, UniProt Q9NPD5); experiment: Uptake substrate investigation in HEK293 cells expressing transporter; conditions: for Uptake transport activity, Mean: OATP1B3-293; for Uptake transport activity, Mean / Ratio of uptake transit activity / Uptake transport activity, Net value: Suppl. Table 11; for Ratio of uptake transit activity / Uptake transport activity, Net value: OATP1B3-293 vs MOCK293
T3 sequence (Q9NPD5 1-702): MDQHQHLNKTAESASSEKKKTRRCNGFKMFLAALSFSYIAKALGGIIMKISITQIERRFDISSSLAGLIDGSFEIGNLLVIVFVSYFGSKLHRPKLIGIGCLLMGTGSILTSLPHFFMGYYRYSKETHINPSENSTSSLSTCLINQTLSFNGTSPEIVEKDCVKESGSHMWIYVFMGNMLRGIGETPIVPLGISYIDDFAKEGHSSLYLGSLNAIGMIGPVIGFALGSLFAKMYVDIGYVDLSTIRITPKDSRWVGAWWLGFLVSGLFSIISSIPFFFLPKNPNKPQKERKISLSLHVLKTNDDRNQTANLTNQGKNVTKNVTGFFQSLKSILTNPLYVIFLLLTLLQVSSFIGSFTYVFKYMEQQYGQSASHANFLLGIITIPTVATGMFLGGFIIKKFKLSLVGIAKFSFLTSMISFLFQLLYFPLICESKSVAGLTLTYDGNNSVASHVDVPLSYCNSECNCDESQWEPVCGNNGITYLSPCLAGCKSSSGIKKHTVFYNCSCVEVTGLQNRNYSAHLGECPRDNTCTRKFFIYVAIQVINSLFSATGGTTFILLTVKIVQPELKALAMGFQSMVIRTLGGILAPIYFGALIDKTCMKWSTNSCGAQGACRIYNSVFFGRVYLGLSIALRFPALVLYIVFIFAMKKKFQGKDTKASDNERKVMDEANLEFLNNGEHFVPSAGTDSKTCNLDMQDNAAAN
Description: (§1) The engineered NIH-3T3 (CD74-ROS1 fusion gene) cells was obtained from Nanjing GenScript Biotechnology Co., Ltd. The engineered Ba/F3 (SLC34A2-ROS1 fusion gene) cell line was obtained from Kyinno Biotechnology (Beijing) Co., Ltd. The HCC-78 (SLC34A2-ROS1 fusion gene) cell line was purchased from Shanghai Hongshun Biotechnology Co., Ltd. The engineered NIH-3T3 (CD74-ROS1 fusion gene) cells was obtained from Nanjing GenScript Biotechnology Co., Ltd. The engineered HEK293 cell lines with OATP1B1 (Lot. No ESH6G27), OATP1B3 (Lot. No ESH7G27), OCT2 (Lot. No ESH9G27), OAT1 (Lot. No ESHCG27), OAT3 (Lot. […] No ESHDG27) were purchased from GenoMembrane and validated using the specific substrate for each transporter. All cells were cultured at 37℃ in a 5% CO2 atmosphere. Cell culture reagents were obtained from Life Technologies, Inc. See Supplemental Table 1 for details on the source of the cell lines and the media used.

[4] = test system: OATP1B3; experiment: as above
Description: as §1

[5] = test system: P-gp/BCRP/MRP2; experiment: ABC efflux transporter substrate investigation on Caco-2 cells; conditions: for efflux ratio at 0.5 µM / efflux ratio at 5 µM / efflux ratio at 50 µM: human
[6] = target: EGFR^L858R/T790M (Homo sapiens, UniProt P00533, L858R/T790M); experiment: HTRF kinase activity assay
EGFR^L858R/T790M, sequence (P00533 25-1210 T790M/L858R): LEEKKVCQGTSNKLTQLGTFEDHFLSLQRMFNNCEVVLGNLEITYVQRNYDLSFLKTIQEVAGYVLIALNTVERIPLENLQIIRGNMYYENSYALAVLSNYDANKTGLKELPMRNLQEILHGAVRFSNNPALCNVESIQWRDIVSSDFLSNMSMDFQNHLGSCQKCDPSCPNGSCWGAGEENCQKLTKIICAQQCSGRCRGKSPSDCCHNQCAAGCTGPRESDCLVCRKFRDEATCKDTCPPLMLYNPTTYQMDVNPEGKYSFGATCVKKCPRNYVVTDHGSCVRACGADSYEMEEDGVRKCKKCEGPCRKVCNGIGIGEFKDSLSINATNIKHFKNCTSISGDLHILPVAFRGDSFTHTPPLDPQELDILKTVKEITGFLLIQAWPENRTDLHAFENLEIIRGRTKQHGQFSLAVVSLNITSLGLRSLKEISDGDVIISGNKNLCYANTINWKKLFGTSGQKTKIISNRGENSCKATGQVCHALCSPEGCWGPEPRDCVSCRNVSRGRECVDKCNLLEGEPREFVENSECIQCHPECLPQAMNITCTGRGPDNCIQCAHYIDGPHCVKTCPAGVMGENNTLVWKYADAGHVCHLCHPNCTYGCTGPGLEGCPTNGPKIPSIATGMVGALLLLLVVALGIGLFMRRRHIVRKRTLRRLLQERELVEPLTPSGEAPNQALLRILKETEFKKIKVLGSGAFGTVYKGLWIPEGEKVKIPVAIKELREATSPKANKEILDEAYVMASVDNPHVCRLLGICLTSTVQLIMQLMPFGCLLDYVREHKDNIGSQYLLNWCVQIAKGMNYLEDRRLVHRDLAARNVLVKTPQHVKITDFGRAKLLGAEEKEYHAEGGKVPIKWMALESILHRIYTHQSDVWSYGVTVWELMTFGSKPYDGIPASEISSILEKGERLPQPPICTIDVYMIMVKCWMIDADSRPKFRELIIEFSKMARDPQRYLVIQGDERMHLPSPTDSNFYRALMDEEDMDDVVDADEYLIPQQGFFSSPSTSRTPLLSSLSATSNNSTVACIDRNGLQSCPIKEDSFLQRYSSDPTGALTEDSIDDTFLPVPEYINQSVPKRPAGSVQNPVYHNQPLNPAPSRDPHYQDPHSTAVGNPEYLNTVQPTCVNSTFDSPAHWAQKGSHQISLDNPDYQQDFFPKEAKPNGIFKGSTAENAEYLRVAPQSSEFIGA
Protocol: (§2) After the kinase proteins, Ulight-peptide species, adenosine triphosphate (ATP), and compound were mixed, the reaction was carried out at room temperature. Reactions were quenched by the addition of ethylene diamine tetraacetic acid buffer containing Eu antibody and XL665-streptavidin at the indicated time points. Plate reading was performed using an Envision (Perkin Elmer, MA, USA) multifunctional microplate reader.

[7] = test system: OAT3; experiment: Uptake inhibitor investigation in HEK293 cells expressing transporter; type: in vitro ADME
[8] = target: ALK^WT (Homo sapiens, UniProt Q9UM73); experiment: HTRF kinase activity assay; type: biochemical
ALK^WT, sequence (Q9UM73 19-1620): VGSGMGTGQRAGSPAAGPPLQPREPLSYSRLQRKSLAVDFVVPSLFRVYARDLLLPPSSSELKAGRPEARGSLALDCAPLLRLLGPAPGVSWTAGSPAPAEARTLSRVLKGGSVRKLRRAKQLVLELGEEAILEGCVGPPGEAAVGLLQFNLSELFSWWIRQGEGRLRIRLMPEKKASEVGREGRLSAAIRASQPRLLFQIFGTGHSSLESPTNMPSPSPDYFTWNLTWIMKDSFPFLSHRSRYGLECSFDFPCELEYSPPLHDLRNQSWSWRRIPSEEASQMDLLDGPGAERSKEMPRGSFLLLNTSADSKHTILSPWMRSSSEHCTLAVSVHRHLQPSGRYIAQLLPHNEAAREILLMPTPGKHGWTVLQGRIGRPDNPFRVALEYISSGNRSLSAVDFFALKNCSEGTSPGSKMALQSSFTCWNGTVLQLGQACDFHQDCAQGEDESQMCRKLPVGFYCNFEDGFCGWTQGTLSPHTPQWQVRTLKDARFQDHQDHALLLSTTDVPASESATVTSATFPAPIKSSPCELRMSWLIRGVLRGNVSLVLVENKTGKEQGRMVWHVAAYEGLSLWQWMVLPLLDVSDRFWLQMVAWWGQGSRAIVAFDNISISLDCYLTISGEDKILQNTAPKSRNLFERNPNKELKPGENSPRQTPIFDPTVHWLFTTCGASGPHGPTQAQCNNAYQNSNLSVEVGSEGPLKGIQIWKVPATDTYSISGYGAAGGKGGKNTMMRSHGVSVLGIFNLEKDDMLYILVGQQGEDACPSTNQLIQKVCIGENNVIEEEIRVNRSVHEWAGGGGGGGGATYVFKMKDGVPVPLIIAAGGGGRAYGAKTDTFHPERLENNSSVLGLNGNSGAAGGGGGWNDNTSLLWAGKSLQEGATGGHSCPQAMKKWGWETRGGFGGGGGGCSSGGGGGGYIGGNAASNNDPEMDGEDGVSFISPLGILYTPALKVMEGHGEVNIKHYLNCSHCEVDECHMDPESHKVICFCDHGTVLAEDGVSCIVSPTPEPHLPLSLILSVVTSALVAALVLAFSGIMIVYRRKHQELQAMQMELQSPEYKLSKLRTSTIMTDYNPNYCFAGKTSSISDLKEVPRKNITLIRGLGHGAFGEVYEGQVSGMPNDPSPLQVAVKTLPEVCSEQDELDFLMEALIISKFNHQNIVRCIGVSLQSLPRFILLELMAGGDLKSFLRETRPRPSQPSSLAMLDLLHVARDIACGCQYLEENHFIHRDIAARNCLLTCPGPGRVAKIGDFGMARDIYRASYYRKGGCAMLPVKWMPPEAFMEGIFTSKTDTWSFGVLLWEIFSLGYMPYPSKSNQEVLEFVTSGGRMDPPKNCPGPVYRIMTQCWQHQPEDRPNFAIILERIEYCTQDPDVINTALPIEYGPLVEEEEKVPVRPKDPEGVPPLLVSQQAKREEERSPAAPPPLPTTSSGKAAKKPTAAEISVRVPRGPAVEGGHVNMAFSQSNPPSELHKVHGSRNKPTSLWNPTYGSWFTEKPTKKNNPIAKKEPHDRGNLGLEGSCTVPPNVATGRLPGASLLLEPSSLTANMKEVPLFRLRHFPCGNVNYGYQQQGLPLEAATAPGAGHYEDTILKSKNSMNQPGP
Protocol: as §2

[9] = MOCK293, test substrate 10 μM, no inhibitor, OATP1B3 pre-test
[10] = OATP1B1-293 (so in the source), test substrate 10 μM, no inhibitor, OATP1B3 pre-test
[11] = transporter cells vs MOCK293, test substrate 10 μM, no inhibitor, OATP1B3 pre-test
[12] = human, HEK293 cells expressing OAT3, probe ATV, 1 μM, read-out: Inhibition rate

For `COc1cc(N2CCC3(CCN(C)CC3)CC2)ccc1Nc1ncc(Cl)c(Nc2ccccc2P(C)(C)=O)n1` [Iruplinalkib], the “Uptake transport activity, Net value” ([1]; 0.5 μM) was 532.9 pmol/mg protein/min, the “Uptake transport activity, Net value” ([1]; 5 μM) was 55.01 pmol/mg protein/min and the “Uptake transport activity, Net value” ([1]; 50 μM) was -114.5 pmol/mg protein/min. The “inhibition of OCT2 uptake” value [2] was “only a weak inhibitory effect”, the “uptake transport activity ratio, OATP1B3” value ([3]; 30 µM, 3 µM, 0.3 µM, HEK293) was “less than two” and the “uptake substrate of OATP1B3” value ([3]; HEK293) was “not an uptake substrate”. For the same compound, the “Uptake transport activity, Mean” value ([3]; 0.3 μM) was 8.165 pmol/mg protein/min, the “Uptake transport activity, Mean” value ([3]; 3 μM) was 57.94 pmol/mg protein/min and the “Uptake transport activity, Mean” value ([3]; 30 μM) was 641.1 pmol/mg protein/min. The “Ratio of uptake transit activity” value ([3]; 0.3 μM) was 1.38, the “Uptake transport activity, Net value” ([3]; 0.3 μM) was 2.263 pmol/mg protein/min and the “Ratio of uptake transit activity” value ([3]; 3 μM) was 1.29. The “Uptake transport activity, Net value” ([3]; 3 μM) was 12.964 pmol/mg protein/min, the “Ratio of uptake transit activity” value ([3]; 30 μM) was 1.32 and the “Uptake transport activity, Net value” ([3]; 30 μM) was 156.58 pmol/mg protein/min. The “Uptake transport activity, Mean” value ([4]; MOCK293 (OATP1B3 set), 0.3 μM, Suppl. Table 11) was 5.902 pmol/mg protein/min, the “Uptake transport activity, Mean” value ([4]; MOCK293 (OATP1B3 set), 3 μM, Suppl. Table 11) was 44.98 pmol/mg protein/min and the “Uptake transport activity, Mean” value ([4]; MOCK293 (OATP1B3 set), 30 μM, Suppl. Table 11) was 484.5 pmol/mg protein/min. For the same compound, the “Uptake transport activity, Mean” value [4, 9] was 230.3 pmol/mg protein/min, the “Uptake transport activity, Repeat 1 / Repeat 2” value [4, 9] was 221.3 pmol/mg protein/min and 239.2 pmol/mg protein/min and the “Uptake transport activity, Mean” value [4, 10] was 327.9 pmol/mg protein/min. For the same compound, the “Uptake transport activity, Repeat 1 / Repeat 2” value [4, 10] was 313.3 pmol/mg protein/min and 342.6 pmol/mg protein/min, the “Ratio of uptake transit activity” value [4, 11] was 1.42 and the “Uptake transport activity, Net value” [4, 11] was 97.7 pmol/mg protein/min. The “substrate of BCRP” value ([5]; Caco-2) was “not for breast cancerresistance protein (BCRP)”, the “substrate of P-gp” value ([5]; Caco-2) was “transported substrate” and the “Exhaust Ratio Mean” value ([5]; Iruplinalkib 0.5 µM as substrate, with Ko143 10 µM) was 20.95. The “Exhaust Ratio Mean” value ([5]; Iruplinalkib 5 µM as substrate, with Ko143 10 µM) was 26.14, the “Exhaust Ratio Mean” value ([5]; Iruplinalkib 5 µM as substrate, with Verapamil 50 µM) was 2.626 and the efflux ratio at 0.5 µM ([5]; Caco-2) was 20.3. It also gave an efflux ratio at 5 µM ([5]; Caco-2) of 84.2, an efflux ratio at 50 µM ([5]; Caco-2) of 8.02 and an efflux ratio at 0.5 µM ([5]; Caco-2, with Elacridar 10 µM) of 2.81. The efflux ratio at 5 µM ([5]; Caco-2, with Elacridar 10 µM) was 0.605, the efflux ratio at 50 µM ([5]; Caco-2, with Elacridar 10 µM) was 0.614 and the efflux ratio at 50 µM ([5]; Caco-2, with Ko143 10 µM) was 9.89. For the same compound, the efflux ratio at 0.5 µM ([5]; Caco-2, with Verapamil 50 µM) was 3.46, the efflux ratio at 50 µM ([5]; Caco-2, with Verapamil 50 µM) was 1.95 and the IC50 [6] was 16.7 ± 8.11 nM. The “inhibitory effect on OAT3” value ([7]; HEK293) was “no significant inhibitory effect”, the inhibition at 0.5 μM [7, 12] was 26.7% and the inhibition at 5 μM [7, 12] was 22.5%. The inhibition at 50 μM [7, 12] was 31.9% and the IC50 [8] was 5.38 nM and < 10 nM.
